# Test results as given in PubChem BioAssay AID2060599 (Molecular Pharmacology Branch, DTP, NCI, 2025).
# System: 817829-284-R-J1-PDC complex spheroids, viability
# Assay: Anticancer human tumor 817829-284-R-J1-PDC patient-derived colon adenocarcinoma cell line growth inhibition [CLK]
# Settings: for IC50: curve of first compound; for viability, T/C: stronger effect = lower value
# Procedure, shortened: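 Multi-cell-type spheroids combined patient-derived tumor cells with HUVEC endothelial cells and human mesenchymal stem cells. Paired agents were dosed in half-log steps down from about clinical Cmax, or from 10 microM where Cmax was unknown.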
# [1] = second compound 0.0316 µM, first compound 0.0316 µM
# [2] = second compound 0.0316 µM, first compound 0.1 µM
# [3] = second compound 0.0316 µM, first compound 0.316 µM
# [4] = second compound 0.0316 µM, first compound 1 µM
# [5] = second compound 0.1 µM, first compound 0.0316 µM
# [6] = second compound 0.1 µM, first compound 0.1 µM
# [7] = second compound 0.1 µM, first compound 0.316 µM
# [8] = second compound 0.1 µM, first compound 1 µM
# [9] = second compound 0.316 µM, first compound 0.0316 µM
# [10] = second compound 0.316 µM, first compound 0.1 µM
# [11] = second compound 0.316 µM, first compound 0.316 µM
# [12] = second compound 0.316 µM, first compound 1 µM
# [13] = second compound 1 µM, first compound 0.0316 µM
# [14] = second compound 1 µM, first compound 0.1 µM
# [15] = second compound 1 µM, first compound 0.316 µM
# [16] = second compound 1 µM, first compound 1 µM
# [17] = second compound 3.16 µM, first compound 0.0316 µM
# [18] = second compound 3.16 µM, first compound 0.1 µM
# [19] = second compound 3.16 µM, first compound 0.316 µM
# [20] = second compound 3.16 µM, first compound 1 µM
# [21] = second compound 10 µM, first compound 0.0316 µM
# [22] = second compound 10 µM, first compound 0.1 µM
# [23] = second compound 10 µM, first compound 0.316 µM
# [24] = second compound 10 µM, first compound 1 µM
# 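Further: spheroids exposed to the agents for seven days before readout.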
smiles,measurement,setting,value
CC(Nc1ccc2c(c1)OCCn1cc(N3C(=O)OCC3C(F)F)nc1-2)C(N)=O (centres undefined) + CNC(=O)c1ccc(Nc2nc(OC3CCCC3)c3c(-c4ccc5nc(C)oc5c4)c[nH]c3n2)c(OC)c1,IC50,second compound 0.0316 µM,< 31.6 nM
same,IC50,second compound 0.1 µM,< 31.6 nM
same,IC50,second compound 0.316 µM,< 31.6 nM
same,IC50,second compound 1 µM,< 31.6 nM
same,IC50,second compound 3.16 µM,< 31.6 nM
same,IC50,second compound 10 µM,< 31.6 nM
same,"viability, T/C",[1],40%
same,"viability, T/C",[2],32.3%
same,"viability, T/C",[3],42.4%
same,"viability, T/C",[4],48.6%
same,"viability, T/C","second compound 0.0316 µM, first compound 3.16 µM",29.8%
same,"viability, T/C","second compound 0.0316 µM, first compound 10 µM",20.4%
same,"viability, T/C",[5],20.4%
same,"viability, T/C",[6],26.4%
same,"viability, T/C",[7],20.2%
same,"viability, T/C",[8],20%
same,"viability, T/C","second compound 0.1 µM, first compound 3.16 µM",33.4%
same,"viability, T/C","second compound 0.1 µM, first compound 10 µM",15.1%
same,"viability, T/C",[9],37.9%
same,"viability, T/C",[10],19.6%
same,"viability, T/C",[11],19.9%
same,"viability, T/C",[12],21.6%
same,"viability, T/C","second compound 0.316 µM, first compound 3.16 µM",18.5%
same,"viability, T/C","second compound 0.316 µM, first compound 10 µM",15.5%
same,"viability, T/C",[13],23.4%
same,"viability, T/C",[14],20.8%
same,"viability, T/C",[15],16.7%
same,"viability, T/C",[16],17.6%
same,"viability, T/C","second compound 1 µM, first compound 3.16 µM",16.1%
same,"viability, T/C","second compound 1 µM, first compound 10 µM",15.3%
same,"viability, T/C",[17],22.2%
same,"viability, T/C",[18],18.8%
same,"viability, T/C",[19],16.5%
same,"viability, T/C",[20],18.6%
same,"viability, T/C","second compound 3.16 µM, first compound 3.16 µM",13.1%
same,"viability, T/C","second compound 3.16 µM, first compound 10 µM",13.6%
same,"viability, T/C",[21],15.1%
same,"viability, T/C",[22],16.6%
same,"viability, T/C",[23],14%
same,"viability, T/C",[24],18.2%
same,"viability, T/C","second compound 10 µM, first compound 3.16 µM",16.8%
same,"viability, T/C","second compound 10 µM, first compound 10 µM",9.33%
COc1c(OCCCN2CCOCC2)ccc2c3n(c(=NC(=O)c4cnc(N)nc4)nc12)CCN3 + CNC(=O)c1ccc(Nc2nc(OC3CCCC3)c3c(-c4ccc5nc(C)oc5c4)c[nH]c3n2)c(OC)c1,IC50,second compound 0.0316 µM,33.8 nM
same,IC50,second compound 0.1 µM,< 3.16 nM
same,IC50,second compound 0.316 µM,< 3.16 nM
same,IC50,second compound 1 µM,< 3.16 nM
same,IC50,second compound 3.16 µM,< 3.16 nM
same,IC50,second compound 10 µM,< 3.16 nM
same,"viability, T/C","second compound 0.0316 µM, first compound 0.00316 µM",39.8%
same,"viability, T/C","second compound 0.0316 µM, first compound 0.01 µM",41.3%
same,"viability, T/C",[1],74.9%
same,"viability, T/C",[2],19.1%
same,"viability, T/C",[3],4.03%
same,"viability, T/C",[4],1.87%
same,"viability, T/C","second compound 0.1 µM, first compound 0.00316 µM",24%
same,"viability, T/C","second compound 0.1 µM, first compound 0.01 µM",21%
same,"viability, T/C",[5],15.8%
same,"viability, T/C",[6],9.46%
same,"viability, T/C",[7],3.69%
same,"viability, T/C",[8],1.76%
same,"viability, T/C","second compound 0.316 µM, first compound 0.00316 µM",20.6%
same,"viability, T/C","second compound 0.316 µM, first compound 0.01 µM",22%
same,"viability, T/C",[9],18.4%
same,"viability, T/C",[10],9.72%
same,"viability, T/C",[11],3.22%
same,"viability, T/C",[12],2.08%
same,"viability, T/C","second compound 1 µM, first compound 0.00316 µM",31.5%
same,"viability, T/C","second compound 1 µM, first compound 0.01 µM",20.5%
same,"viability, T/C",[13],11.6%
same,"viability, T/C",[14],9.58%
same,"viability, T/C",[15],2.07%
same,"viability, T/C",[16],1.92%
same,"viability, T/C","second compound 3.16 µM, first compound 0.00316 µM",26.7%
same,"viability, T/C","second compound 3.16 µM, first compound 0.01 µM",24%
same,"viability, T/C",[17],11.9%
same,"viability, T/C",[18],5.77%
same,"viability, T/C",[19],2.1%
same,"viability, T/C",[20],1.82%
same,"viability, T/C","second compound 10 µM, first compound 0.00316 µM",19.7%
same,"viability, T/C","second compound 10 µM, first compound 0.01 µM",16%
same,"viability, T/C",[21],19.1%
same,"viability, T/C",[22],6.5%
same,"viability, T/C",[23],6.46%
same,"viability, T/C",[24],1.67%
